Source: paper PMC10714399, “Open Source Antibiotics: Simple Diarylimidazoles Are Potent against Methicillin-Resistant Staphylococcus aureus” (ACS Infectious Diseases, 2023)
Converted amounts (≈) assume the structure as drawn. “And” between values parts separate entries of the source, which are not always exact repeats. Equal entries are not always repeated.

tested on: Staphylococcus aureus NCTC 13373 (mecA-positive; methicillin-resistant); assay: In vitro antibacterial activity, MIC (UCL School of Pharmacy assay), MRSA; assay type: cell-based; conditions: Staphylococcus aureus, UCL; read-out: MRSA MIC (UCL)
How it was run: (§1)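 Broth microdilution MIC in isosensitest broth; inoculum from overnight tryptone soya agar culture suspended in PBS to A600 0.1 (~1 × 10^8 CFU/mL), then diluted 1:100. Compounds tested as 2-fold series from 32 to 0.03 μg/mL, DMSO at most 2%; vancomycin as quality control.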

Row | MIC | Structure (SMILES)
1 | 8 µg/mL (≈ 26.3 µM) | Fc1ccc(Nc2c(-c3ccccn3)nc3ccccn23)cc1 [OSA_000987]
2 | 8 µg/mL (≈ 21.8 µM) | COc1ccc2nc(-c3ccccn3)c(N(C)c3cc(F)cc(F)c3)n2c1 [OSA_000998]
3 | 2 µg/mL (≈ 5.29 µM) | COc1ccnc(-c2nc3cc(OC)ccn3c2N(C)c2ccc(F)cc2)c1 [OSA_001000]
4 | 4 µg/mL (≈ 14 µM) | Cc1ccc(-c2c(-c3ccccn3)nc3ccccn23)cc1 [OSA_001018]

same assay, conditions: Staphylococcus aureus; UCL assay; read-out: MRSA MIC (ug/mL) (UCL)

Row | MIC | Structure (SMILES)
5 | > 32 µg/mL | CS(=O)(=O)c1ccc2nc(-c3ccccn3)c(Nc3ccc(F)cc3)n2c1 [OSA_001020]
6 | 8 µg/mL (≈ 21.1 µM) | CC(C)CN(c1ccc(F)cc1)c1c(-c2ccccn2)nc2cc(F)ccn12 [OSA_001023]

tested on: S. aureus ATCC 25923 (methicillin-susceptible); assay: In vitro antibacterial activity, MIC (UCL), MSSA; assay type: cell-based, Staphylococcus aureus; conditions: Staphylococcus aureus; UCL assay; read-out: MSSA MIC (ug/mL) (UCL)
How it was run: as §1

Row | MIC | Structure (SMILES)
7 | > 32 µg/mL | CS(=O)(=O)c1ccc2nc(-c3ccccn3)c(Nc3ccc(F)cc3)n2c1 [OSA_001020]
8 | 4 µg/mL (≈ 10.6 µM) | CC(C)CN(c1ccc(F)cc1)c1c(-c2ccccn2)nc2cc(F)ccn12 [OSA_001023]

same assay, conditions: Staphylococcus aureus; read-out: MSSA MIC (UCL)

Row | MIC | Structure (SMILES)
9 | 16 µg/mL (≈ 52.6 µM) | Fc1ccc(Nc2c(-c3ccccn3)nc3ccccn23)cc1 [OSA_000987]
10 | 8 µg/mL (≈ 21.8 µM) | COc1ccc2nc(-c3ccccn3)c(N(C)c3cc(F)cc(F)c3)n2c1 [OSA_000998]
11 | 8 µg/mL (≈ 21.1 µM) | COc1ccnc(-c2nc3cc(OC)ccn3c2N(C)c2ccc(F)cc2)c1 [OSA_001000]
12 | 4 µg/mL (≈ 14 µM) | Cc1ccc(-c2c(-c3ccccn3)nc3ccccn23)cc1 [OSA_001018]

tested on: Enterococcus faecalis ATCC 51299 (vanA-positive; vancomycin-resistant); assay: In vitro antibacterial activity, MIC (UCL), VRE; assay type: cell-based; conditions: read-out: VRE MIC (UCL)
How it was run: as §1

Row | MIC | Structure (SMILES)
13 | 32 µg/mL (≈ 105 µM) | Fc1ccc(Nc2c(-c3ccccn3)nc3ccccn23)cc1 [OSA_000987]
14 | 32 µg/mL (≈ 87.3 µM) | COc1ccc2nc(-c3ccccn3)c(N(C)c3cc(F)cc(F)c3)n2c1 [OSA_000998]
15 | 8 µg/mL (≈ 21.1 µM) | COc1ccnc(-c2nc3cc(OC)ccn3c2N(C)c2ccc(F)cc2)c1 [OSA_001000]

tested on: VSE; assay: In vitro antibacterial activity, MIC, VSE; assay type: cell-based; conditions: read-out: VSE MIC (UCL)

Row | MIC | Structure (SMILES)
16 | 32 µg/mL (≈ 105 µM) | Fc1ccc(Nc2c(-c3ccccn3)nc3ccccn23)cc1 [OSA_000987]
17 | 16 µg/mL (≈ 43.7 µM) | COc1ccc2nc(-c3ccccn3)c(N(C)c3cc(F)cc(F)c3)n2c1 [OSA_000998]
18 | 8 µg/mL (≈ 21.1 µM) | COc1ccnc(-c2nc3cc(OC)ccn3c2N(C)c2ccc(F)cc2)c1 [OSA_001000]

tested on: not listed separately; assay: Aqueous solubility; assay type: physicochemical; conditions: NEU

Row | Aqueous Solubility (NEU) | Structure (SMILES)
19 | 43 µM | Cc1ccc(-c2c(-c3ccccn3)nc3ccccn23)cc1 [OSA_001018]

same assay, conditions: thermodynamic from solid; NEU; read-out: Aqueous Solubility (NEU)

Row | solubility | Structure (SMILES)
20 | 0.5 µM (≈ 0.152 µg/mL) | Fc1ccc(Nc2c(-c3ccccn3)nc3ccccn23)cc1 [OSA_000987]
21 | 8 µM (≈ 2.93 µg/mL) | COc1ccc2nc(-c3ccccn3)c(N(C)c3cc(F)cc(F)c3)n2c1 [OSA_000998]
22 | 12 µM (≈ 4.54 µg/mL) | COc1ccnc(-c2nc3cc(OC)ccn3c2N(C)c2ccc(F)cc2)c1 [OSA_001000]

same assay, conditions: thermodynamic from solid; NEU; read-out: Aqueous Solubility (uM) (NEU)

Row | solubility | Structure (SMILES)
23 | 5 µM (≈ 1.91 µg/mL) | CS(=O)(=O)c1ccc2nc(-c3ccccn3)c(Nc3ccc(F)cc3)n2c1 [OSA_001020]
24 | 11 µM (≈ 4.16 µg/mL) | CC(C)CN(c1ccc(F)cc1)c1c(-c2ccccn2)nc2cc(F)ccn12 [OSA_001023]

tested on: not listed separately; assay: LogD7.4 (Chrom Log D); assay type: physicochemical; conditions: chromatographic system (Chrom Log D); pH 7.4, NEU; read-out: LogD 7.4 (NEU)
Source text: To guide our initial SAR exploration work, we obtained liver microsomal intrinsic clearance data for 5 of the 18 compounds assayed by CO-ADD (Supporting Information - CDCO Report and Supporting Information - Biology). We then acquired intrinsic clearance (CLint), plasma protein binding (PPB), and solubility data on further compounds throughout the SAR campaign (Supporting Information - Biology, Tables S3 and S4). […] The more polar compounds (lower LogD) had reduced PPB and were more metabolically stable.
Table S4. ADME and Pharmacokinetics: compounds only appearing in the Supplementary […]
MRSA Aqueous HLM CLint Rat Hep CLint
Cmpd MIC Solubility Human PPB (%) (µL/min/mg (µL/min/10x6 LogD7.4
(µg/mL) (µM) protein) cells)
(§2) ADME and toxicity for compounds were measured according to procedures outlined in the manuscript submitted in parallel to this one;2 other procedures were used for those compounds analysed by Monash University (in vitro ADME) or UCL (toxicity), both described in the main

Row | Structure (SMILES) | chromatographic logD
25 | Fc1ccc(Nc2c(-c3ccccn3)nc3ccccn23)cc1 [OSA_000987] | 3.3
26 | COc1ccc2nc(-c3ccccn3)c(N(C)c3cc(F)cc(F)c3)n2c1 [OSA_000998] | 4
27 | COc1ccnc(-c2nc3cc(OC)ccn3c2N(C)c2ccc(F)cc2)c1 [OSA_001000] | 3.1

The remaining lines, values ahead:

Row | chromatographic logD | Structure (SMILES)
28 | 3.3 | Cc1ccc(-c2c(-c3ccccn3)nc3ccccn23)cc1 [OSA_001018]
29 | 2.4 | CS(=O)(=O)c1ccc2nc(-c3ccccn3)c(Nc3ccc(F)cc3)n2c1 [OSA_001020]
30 | 4.3 | CC(C)CN(c1ccc(F)cc1)c1c(-c2ccccn2)nc2cc(F)ccn12 [OSA_001023]

tested on: not listed separately; assay: Human plasma protein binding (PPB); assay type: in vitro ADME; conditions: human, plasma, human plasma, NEU; read-out: Human PPB (%) (NEU) (converted)

Row | fraction unbound | Structure (SMILES)
31 | 0.11 | CS(=O)(=O)c1ccc2nc(-c3ccccn3)c(Nc3ccc(F)cc3)n2c1 [OSA_001020]
32 | 0.0023 | CC(C)CN(c1ccc(F)cc1)c1c(-c2ccccn2)nc2cc(F)ccn12 [OSA_001023]

same assay, conditions: human, plasma, human plasma, NEU; read-out: Human PPB (NEU) (converted)

Row | fraction unbound | Structure (SMILES)
33 | 0.017 | Fc1ccc(Nc2c(-c3ccccn3)nc3ccccn23)cc1 [OSA_000987]
34 | 0.0085 | COc1ccc2nc(-c3ccccn3)c(N(C)c3cc(F)cc(F)c3)n2c1 [OSA_000998]
35 | < 0.033 | COc1ccnc(-c2nc3cc(OC)ccn3c2N(C)c2ccc(F)cc2)c1 [OSA_001000]
36 | 0.011 | Cc1ccc(-c2c(-c3ccccn3)nc3ccccn23)cc1 [OSA_001018]

tested on: not listed separately; assay: Human liver microsome intrinsic clearance; assay type: in vitro ADME; conditions: human liver microsomes, NEU

Row | HLM CLint (NEU) | HLM CLint (uL/min/mg protein) (NEU) | Structure (SMILES)
37 | 122 uL/min/mg protein | – | Cc1ccc(-c2c(-c3ccccn3)nc3ccccn23)cc1 [OSA_001018]
38 | – | 92 uL/min/mg protein | CS(=O)(=O)c1ccc2nc(-c3ccccn3)c(Nc3ccc(F)cc3)n2c1 [OSA_001020]

same assay, conditions: human liver microsomes, NEU; read-out: HLM CLint (NEU)

Row | microsomal CLint | Structure (SMILES)
39 | 148 µL/min/mg | Fc1ccc(Nc2c(-c3ccccn3)nc3ccccn23)cc1 [OSA_000987]
40 | 100 µL/min/mg | COc1ccc2nc(-c3ccccn3)c(N(C)c3cc(F)cc(F)c3)n2c1 [OSA_000998]
41 | 51.2 µL/min/mg | COc1ccnc(-c2nc3cc(OC)ccn3c2N(C)c2ccc(F)cc2)c1 [OSA_001000]

same assay, conditions: human liver microsomes, NEU; read-out: HLM CLint (uL/min/mg protein) (NEU)

Row | microsomal CLint | Structure (SMILES)
42 | 13.6 µL/min/mg | CC(C)CN(c1ccc(F)cc1)c1c(-c2ccccn2)nc2cc(F)ccn12 [OSA_001023]

tested on: not listed separately; assay: Rat hepatocyte intrinsic clearance; assay type: in vitro ADME; conditions: rat hepatocytes, NEU

Row | Rat Hep CLint (NEU) | Structure (SMILES)
43 | 57.7 uL/min/10x6 cells | Cc1ccc(-c2c(-c3ccccn3)nc3ccccn23)cc1 [OSA_001018]

same assay, conditions: rat hepatocytes, NEU; read-out: Rat Hep CLint (NEU)

Row | hepatocyte CLint | Structure (SMILES)
44 | 151 µL/min/1e6 cells | Fc1ccc(Nc2c(-c3ccccn3)nc3ccccn23)cc1 [OSA_000987]
45 | > 300 µL/min/1e6 cells | COc1ccc2nc(-c3ccccn3)c(N(C)c3cc(F)cc(F)c3)n2c1 [OSA_000998]
46 | > 300 µL/min/1e6 cells | COc1ccnc(-c2nc3cc(OC)ccn3c2N(C)c2ccc(F)cc2)c1 [OSA_001000]

same assay, conditions: rat hepatocytes, NEU; read-out: Rat Hep CLint (uL/min/10x6 cells) (NEU)

Row | hepatocyte CLint | Structure (SMILES)
47 | > 300 µL/min/1e6 cells | CS(=O)(=O)c1ccc2nc(-c3ccccn3)c(Nc3ccc(F)cc3)n2c1 [OSA_001020]
48 | 110 µL/min/1e6 cells | CC(C)CN(c1ccc(F)cc1)c1c(-c2ccccn2)nc2cc(F)ccn12 [OSA_001023]

tested on: MRC-5SV2 (human lung fibroblast cell line); assay: Toxicity against MRC-5SV2; assay type: cell-based; conditions: MRC5 cells
Description: as §2

Row | Structure (SMILES) | MRC5 TC50
49 | Fc1ccc(Nc2c(-c3ccccn3)nc3ccccn23)cc1 [OSA_000987] | 7.65 µM and 6.04 µM
50 | CS(=O)(=O)c1ccc2nc(-c3ccccn3)c(Nc3ccc(F)cc3)n2c1 [OSA_001020] | 64 µM

tested on: PMM (primary mouse macrophages); assay: Toxicity against PMM; assay type: cell-based; conditions: PMM
Description: as §2

Row | Structure (SMILES) | PMM TC50
51 | CS(=O)(=O)c1ccc2nc(-c3ccccn3)c(Nc3ccc(F)cc3)n2c1 [OSA_001020] | 32 µM
